Measured values: US9920032B2, “Heterocyclic compounds useful as pim kinase inhibitors” (Incyte Corporation, priority 2015, dated 2018)

How the values were obtained:
Format in all cases: biochemical
[1] = molecular target: Pim-3 (Homo sapiens (Human), UniProt Q86V86); assay: Pim-3 kinase assay; conditions: 1 mM ATP; read-out: PIM3 IC50
Description: (§1) Pim-1 and Pim-3 kinase assays—20 μL reactions were run in white 384 well polystyrene plates dotted with 0.8 μL compound/DMSO in the assay buffer (50 mM Tris, pH 7.5, 0.01% Tween-20, 5 mM mgCl2, 0.01% BSA, 5 mM DTT), containing 0.05 μM Biotin-labeled BAD peptide substrate (AnaSpec 62269), 1 mM ATP, and 2.5 pM (Pim-1, Invitrogen PV3503) or 1.25 pM (Pim-3, Millipore 14-738) enzyme for 1 h at 25° C. Reactions were stopped by addition of 10 μL STOP Buffer (150 mM Tris, pH=7.5, 150 mM NaCl, 75 mM EDTA, 0.01% Tween-20, 0.3% BSA,) supplemented with Phospho-Bad (Ser112) Antibody (Cell Signaling 9291) diluted 666-fold, and Streptavidin donor beads (PerkinElmer 6760002) along with Protein-A acceptor beads (PerkinElmer 6760137) at […]. Supplementation of the STOP buffer with beads and stopping the reactions were done under reduced light. Prior to the stopping reactions STOP buffer with beads was preincubated for 1 h in the dark at room temperature. After stopping the reactions, plates were incubated for 1 h in the dark at room temperature before reading on a PHERAstar FS plate reader (BMG Labtech) under reduced light.

[2] = molecular target: Pim-1 (Homo sapiens (Human), UniProt P11309); assay: Pim-1 kinase assay; conditions: 1 mM ATP; read-out: PIM1 IC50
Pim-1, sequence (P11309 whole entry): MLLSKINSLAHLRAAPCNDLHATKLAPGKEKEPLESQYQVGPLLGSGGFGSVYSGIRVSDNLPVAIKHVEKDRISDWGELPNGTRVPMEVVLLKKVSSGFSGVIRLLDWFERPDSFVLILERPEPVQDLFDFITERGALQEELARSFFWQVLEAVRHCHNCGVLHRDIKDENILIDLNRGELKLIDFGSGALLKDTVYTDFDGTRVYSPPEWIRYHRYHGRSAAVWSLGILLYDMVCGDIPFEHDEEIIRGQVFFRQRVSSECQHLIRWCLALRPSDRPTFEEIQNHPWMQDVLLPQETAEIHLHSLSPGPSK
Description: as §1

[3] = molecular target: Pim-2 (Homo sapiens (Human), UniProt Q9P1W9); assay: Pim-2 kinase assay; conditions: 1 mM ATP; read-out: PIM2 IC50
Pim-2, sequence (Q9P1W9 whole entry): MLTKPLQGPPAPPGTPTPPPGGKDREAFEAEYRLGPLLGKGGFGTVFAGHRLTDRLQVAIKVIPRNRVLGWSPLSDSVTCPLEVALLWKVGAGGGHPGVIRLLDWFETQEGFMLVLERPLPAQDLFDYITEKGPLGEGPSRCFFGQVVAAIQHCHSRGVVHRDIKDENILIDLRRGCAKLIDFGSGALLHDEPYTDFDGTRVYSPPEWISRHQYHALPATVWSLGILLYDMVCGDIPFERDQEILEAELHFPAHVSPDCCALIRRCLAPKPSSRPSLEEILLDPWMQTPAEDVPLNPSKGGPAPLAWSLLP
Description: Pim-2 kinase assay—20 μL reactions were run in white 384 well polystyrene plates dotted with 0.8 μL compound/DMSO in the assay buffer (50 mM Tris, pH 7.5, 0.01% Tween-20, 5 mM mgCl2, 0.01% BSA, 5 mM DTT), containing 0.05 μM Fluorescein-labeled CREBtide peptide substrate (Invitrogen PV3508), 1 mM ATP, and 1 nM enzyme (Invitrogen PV3649) for 2 h at 25° C. Reactions were stopped by addition of 10 μL TR-FRET Dilution Buffer (Invitrogen PV3574) with 30 mM EDTA and 1.5 nM LanthaScreen Tb-CREB pSer133 antibody (Invitrogen PV3566). After 30 min. incubation at room temperature, plates were read on a PHERAstar FS plate reader (BMG Labtech).

Row | Compound | IC50 [1] | IC50 [2] | IC50 [3]
1 | C[C@@H]1C[C@H](N)C[C@H](c2ccncc2NC(=O)c2ccc(F)c3cc(N4CCCS4(=O)=O)cnc23)C1 [Example 138, N-(4-((1R,3S,5S)-3-Amino-5-methylcyclohexyl)pyridin-3-yl)-3-(1,1-dioxidoisothiazolidin-2-yl)-5-fluoroquinoline-8-carboxamide] | ≤ 10 nM | ≤ 10 nM | 100 to 1000 nM
2 | CO[C@H]1CCN(c2cnc3c(C(=O)Nc4cnccc4[C@@H]4C[C@H](C)C[C@H](N)C4)ccc(F)c3c2)[C@H](C)C1 [Example 159, N-(4-((1R,3S,5S)-3-Amino-5-methylcyclohexyl)pyridin-3-yl)-5-fluoro-3-((2R,4S)-4-methoxy-2-methylpiperidin-1-yl)quinoline-8-carboxamide] | ≤ 10 nM | ≤ 10 nM | ≤ 100 nM
3 | C[C@@H]1C[C@H](N)C[C@H](c2ccncc2NC(=O)c2ccc(F)c3cc(N4CCc5cnn(C)c5C4)cnc23)C1 [Example 127, N-(4-((1R,3S,5S)-3-Amino-5-methylcyclohexyl)pyridin-3-yl)-5-fluoro-3-(1-methyl-4,5-dihydro-1H-pyrazolo[3,4-c]pyridin-6(7H)-yl)quinoline-8-carboxamide] | ≤ 10 nM | ≤ 10 nM | ≤ 100 nM
4 | Cc1n[nH]cc1-c1cnc2c(C(=O)Nc3cnccc3[C@@H]3C[C@H](C)C[C@H](N)C3)ccc(F)c2c1 [Example 65, N-(4-((1R,3S,5S)-3-amino-5-methylcyclohexyl)pyridin-3-yl)-5-fluoro-3-(3-methyl-1H-pyrazol-4-yl)quinoline-8-carboxamide] | ≤ 10 nM | ≤ 10 nM | 100 to 1000 nM
5 | C[C@@H]1C[C@H](N)C[C@H](c2ccncc2NC(=O)c2ccc(F)c3cc(N(C)[C@@H]4CCOC4)cnc23)C1 [Example 154, N-(4-((1R,3S,5S)-3-Amino-5-methylcyclohexyl)pyridin-3-yl)-5-fluoro-3-(methyl((R)-tetrahydrofuran-3-yl)amino)quinoline-8-carboxamide] | ≤ 10 nM | ≤ 10 nM | 100 to 1000 nM
6 | CO[C@@H]1C[C@H](C)N(c2cnc3c(C(=O)Nc4cnccc4[C@@H]4C[C@H](C)C[C@H](N)C4)ccc(F)c3c2)C1 [Example 155, N-(4-((1R,3S,5S)-3-Amino-5-methylcyclohexyl]pyridin-3-yl}-5-fluoro-3-[(2S,4R)-4-methoxy-2-methylpyrrolidin-1-yl]quinoline-8-carboxamide] | ≤ 10 nM | ≤ 10 nM | ≤ 100 nM
7 | CC(C)N(C)c1cnc2c(C(=O)Nc3cnccc3[C@@H]3C[C@H](C)C[C@H](N)C3)ccc(F)c2c1 [Example 56, N-(4-((1R,3S,5S)-3-Amino-5-methylcyclohexyl)pyridin-3-yl)-5-fluoro-3-(isopropyl(methyl)amino)quinoline-8-carboxamide] | ≤ 10 nM | ≤ 10 nM | ≤ 100 nM
8 | CCn1cc(-c2cnc3c(C(=O)Nc4cnccc4[C@@H]4C[C@H](C)C[C@H](N)C4)ccc(F)c3c2)cn1 [Example 62, N-(4-((1R,3S,5S)-3-Amino-5-methylcyclohexyl)pyridin-3-yl)-3-(1-ethyl-1H-pyrazol-4-yl)-5-fluoroquinoline-8-carboxamide] | ≤ 10 nM | ≤ 10 nM | 100 to 1000 nM
9 | C[C@@H]1C[C@H](N)C[C@H](c2ccncc2NC(=O)c2ccc(F)c3cc(N(C)c4ccc5nccn5c4)cnc23)C1 [Example 153] | ≤ 10 nM | ≤ 10 nM | 100 to 1000 nM
10 | C[C@@H]1C[C@H](N)C[C@H](c2ccncc2NC(=O)c2ccc(F)c3cc(N4CCCCCC4)cnc23)C1 [Example 76, N-(4-((1R,3S,5S)-3-Amino-5-methylcyclohexyl)pyridin-3-yl)-3-(azepan-1-yl)-5-fluoroquinoline-8-carboxamide] | ≤ 10 nM | ≤ 10 nM | ≤ 100 nM
11 | C[C@@H]1C[C@H](N)C[C@H](c2ccncc2NC(=O)c2ccc(F)c3cc(N4CCN(S(=O)(=O)N(C)C)CC4)cnc23)C1 [Example 74, N-(4-((1R,3S,5S)-3-Amino-5-methylcyclohexyl)pyridin-3-yl)-3-(4-(N,N-dimethylsulfamoyl)piperazin-1-yl)-5-fluoroquinoline-8-carboxamide] | ≤ 10 nM | ≤ 10 nM | 100 to 1000 nM
12 | COC(=O)N1CCCN(c2cnc3c(C(=O)Nc4cnccc4[C@@H]4C[C@H](C)C[C@H](N)C4)ccc(F)c3c2)CC1 [Example 126, Methyl 4-(8-(4-((1R,3S,5S)-3-amino-5-methylcyclohexyl)pyridin-3-ylcarbamoyl)-5-fluoroquinolin-3-yl)-1,4-diazepane-1-carboxylate] | ≤ 10 nM | ≤ 10 nM | ≤ 100 nM
13 | C[C@@H]1C[C@H](N)C[C@H](c2ccncc2NC(=O)c2ccc(F)c3cc(N4CCC[C@H]4C)cnc23)C1 [Example 34, N-(4-((1R,3S,5S)-3-Amino-5-methylcyclohexyl)pyridin-3-yl)-5-fluoro-3-((R)-2-methylpyrrolidin-1-yl)quinoline-8-carboxamide] | ≤ 10 nM | ≤ 10 nM | ≤ 100 nM
14 | C[C@@H]1C[C@H](N)C[C@H](c2ccncc2NC(=O)c2ccc(F)c3cc(N4CC[C@@H](C#N)C4)cnc23)C1 [Example 8, N-{4-[(1R,3S,5S)-3-Amino-5-methylcyclohexyl]pyridin-3-yl}-3-[(3R)-3-cyanopyrrolidin-1-yl]-5-fluoroquinoline-8-carboxamide] | ≤ 10 nM | ≤ 10 nM | ≤ 100 nM
15 | CC1CCCCN1c1cnc2c(C(=O)Nc3cnccc3[C@@H]3C[C@H](C)C[C@H](N)C3)cccc2c1 (stereo partly drawn) [Example 70, N-(4-((1R,3S,5S)-3-Amino-5-methylcyclohexyl)pyridin-3-yl)-3-(2-methylpiperidin-1-yl)quinoline-8-carboxamide] | ≤ 10 nM | ≤ 10 nM | 100 to 1000 nM
16 | CO[C@H]1C[C@H](C)N(c2cnc3c(C(=O)Nc4cnccc4[C@@H]4C[C@H](C)C[C@H](N)C4)ccc(F)c3c2)C1 [Example 157, N-(4-((1R,3S,5S)-3-Amino-5-methylcyclohexyl)pyridin-3-yl)-5-fluoro-3-((2S,4S)-4-methoxy-2-methylpyrrolidin-1-yl)quinoline-8-carboxamide] | ≤ 10 nM | ≤ 10 nM | ≤ 100 nM
17 | C[C@@H]1C[C@H](N)C[C@H](c2ccncc2NC(=O)c2ccc(F)c3cc(N4C[C@H]5C[C@@H]4CN5S(C)(=O)=O)cnc23)C1 [Example 87, N-(4-((1R,3S,5S)-3-Amino-5-methylcyclohexyl)pyridin-3-yl)-5-fluoro-3-((1R,4R)-5-(methylsulfonyl)-2,5-diazabicyclo[2.2.1]heptan-2-yl)quinoline-8-carboxamide] | ≤ 10 nM | ≤ 10 nM | 100 to 1000 nM
18 | C[C@@H]1C[C@H](N)C[C@H](c2ccncc2NC(=O)c2ccc(F)c3cc(N4CCC4)cnc23)C1 [Example 4, N-{4-[(1R,3S,5S)-3-Amino-5-methylcyclohexyl]pyridin-3-yl}-3-azetidin-1-yl-5-fluoroquinoline-8-carboxamide] | 10 to 50 nM | ≤ 10 nM | 100 to 1000 nM
19 | C[C@@H]1C[C@H](N)C[C@H](c2ccncc2NC(=O)c2ccc(F)c3cc(N4CC(=O)N(C)C[C@H]4C)cnc23)C1 [Example 99, N-(4-((1R,3S,5S)-3-Amino-5-methylcyclohexyl)pyridin-3-yl)-3-((R)-2,4-dimethyl-5-oxopiperazin-1-yl)-5-fluoroquinoline-8-carboxamide] | ≤ 10 nM | ≤ 10 nM | ≤ 100 nM
20 | C[C@@H]1C[C@H](N)C[C@H](c2ccncc2NC(=O)c2ccc(F)c3cc(N4C5CCC4COC5)cnc23)C1 [Example 77, N-(4-((1R,3S,5S)-3-Amino-5-methylcyclohexyl)pyridin-3-yl)-3-(3-oxa-8-azabicyclo[3.2.1]octan-8-yl)-5-fluoroquinoline-8-carboxamide] | ≤ 10 nM | ≤ 10 nM | ≤ 100 nM
21 | C[C@@H]1C[C@H](N)C[C@H](c2ccncc2NC(=O)c2ccc(F)c3cc(N4CCC(O)CC4)cnc23)C1 [Example 44, N-(4-((1R,3S,5S)-3-Amino-5-methylcyclohexyl)pyridin-3-yl)-5-fluoro-3-(4-hydroxypiperidin-1-yl)quinoline-8-carboxamide] | ≤ 10 nM | ≤ 10 nM | 100 to 1000 nM
